The text below walks through data of patent US5315038A, “Microorganism for breaking down moenomycins, a process for the breakdown, and the use of the breakdown products” (Hoechst Aktiengesellschaft, priority 1988, dated 1994).

In experiment [1] the test system is Moenomycinase. Kind of experiment: Moenomycinase activity (activation / inhibition). Type of experiment: biochemical, Bacillus spec. DSM 4675. The source says: The dissolved enzyme was further purified by chromatography. For anion exchange chromatography, the enzyme was bound to a column of DEAE-52 (Whatman) or MonoQHR-5-5 (Pharmacia) and then eluted with 0.2-1.0M NaCl. Presence of moenomycinase in the fractions was monitored by measuring the conversion of moenomycin A to MC, as described in Example 3, below. Further purification was achieved using hydrophobic chromatography. The enzyme was bound to phenylsepharose (Pharmacia), and was then eluted with 40% methanol. The enzyme was concentrated by ultrafiltration using an ultrafiltration membrane (Millipore) which retains molecules with molecular weights ≥10,000 Dalton.

Experiment [2] has as its target T1, transglycosylase (Escherichia coli, UniProt P02919). The experiment in a line: Another study: inhibition of the transglycosylase reaction, in vitro peptidoglycan synthesis. The class given is biochemical, E. coli K 12. As to conditions: Final Concentration 12.5 μg/l. Here is the method: (§1) The inhibition of the polymerization of the peptidoglycan-sugar chains by the cleavage products was carried out by the assay described by Izaki (J. Biol. Chem. 243, 3180-3192, 1968) using lipid intermediates from the cell membrane of E. coli K 12.
Results of another study of the inhibition of the transglycosylase reaction by moenomycin cleavage products in vitro is shown in the following Table. The values in the Table show the inhibition of peptidoglycan-sugar chain synthesis in vitro. Decahydro MB is an analog of MB that has no double bonds in the alkyl chain.

The subject of another experiment is E. coli DC2. The experiment in a line: Agar dilution test, Mueller-Hinton agar (minimum inhibitory concentration). The class given is cell-based. Particulars: Escherichia coli. As for the experimental part:
(§2) An agar dilution test with Mueller-Hinton agar was carried out to determine the antibacterial activities (Antibiotics in Laboratory Medicine, V. Lorian, Ed., Baltimore 1986, pages 1-10).

In the next experiment the test system is Str. pyogenes 77. The experiment is described as above. As to conditions: Streptococcus pyogenes. Type of experiment: cell-based. As for the experimental part: as §2
In another experiment the test system is Staph. aureus 503. Described as above. The class given is cell-based. As to conditions: Staphylococcus aureus. Here is the method:
as §2

Experiment [3] addresses T1, transglycosylase. Kind of experiment: Transglycosylase assay (Izaki), inhibition of polymerization of the peptidoglycan-sugar chains. The class given is biochemical, E. coli K 12. As to conditions: moenomycin A 20 μg/ml; concentration of MB not stated separately. As for the experimental part: as §1
In experiment [4] the test system is biosynthesis of the peptidoglycan framework of the bacterial cell wall. Particulars: cited from earlier work.
The test system of experiment [5] is Moenomycinase. The experiment in a line: Moenomycinase kinetics (Km for substrate). Type of experiment: biochemical, Bacillus spec. DSM 4675. Particulars: moenomycin A as substrate.

Usually MIC stands for the lowest concentration that inhibits growth of the organism. Read a high MIC as a less susceptible organism. For orientation: Km means the concentration of substrate that gives half-maximal velocity.

Values after ≈ are worked out from the molar mass of the structure shown.

T1 sequence (P02919 whole entry): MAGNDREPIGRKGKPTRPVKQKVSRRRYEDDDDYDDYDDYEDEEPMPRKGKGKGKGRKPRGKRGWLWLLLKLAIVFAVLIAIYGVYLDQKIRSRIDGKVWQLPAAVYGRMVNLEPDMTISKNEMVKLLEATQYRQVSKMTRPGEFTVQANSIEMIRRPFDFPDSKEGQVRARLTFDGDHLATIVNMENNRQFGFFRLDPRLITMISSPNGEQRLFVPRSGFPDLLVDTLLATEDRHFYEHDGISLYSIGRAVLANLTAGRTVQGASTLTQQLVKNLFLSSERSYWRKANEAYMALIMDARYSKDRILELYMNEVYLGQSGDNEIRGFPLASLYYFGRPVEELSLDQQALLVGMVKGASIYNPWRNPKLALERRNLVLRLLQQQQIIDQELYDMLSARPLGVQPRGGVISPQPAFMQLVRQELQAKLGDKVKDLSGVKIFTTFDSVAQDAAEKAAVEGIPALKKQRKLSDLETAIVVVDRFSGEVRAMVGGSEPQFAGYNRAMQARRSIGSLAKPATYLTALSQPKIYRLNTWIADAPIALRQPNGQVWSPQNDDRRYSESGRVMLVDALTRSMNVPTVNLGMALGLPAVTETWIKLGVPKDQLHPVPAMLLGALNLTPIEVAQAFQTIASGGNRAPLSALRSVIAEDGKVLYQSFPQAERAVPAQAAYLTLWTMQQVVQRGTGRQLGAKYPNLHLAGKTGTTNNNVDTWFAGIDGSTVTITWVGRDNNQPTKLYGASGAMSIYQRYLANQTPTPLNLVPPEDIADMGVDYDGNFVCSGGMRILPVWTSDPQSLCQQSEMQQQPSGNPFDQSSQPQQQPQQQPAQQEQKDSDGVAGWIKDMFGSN

Regarding `CC(=O)OCC1=C(C(=O)O)N2C(=O)[C@@H](N)[C@H]2SC1` [7-aminocephalosporin acid (7-ACA), 7-aminocephalosporin acid], the inhibition of moenomycinase entry with Moenomycinase [1] was “inhibited”.

For `CC(=O)OCC1=C(C(=O)O)N2C(=O)[C@@H](NC(=O)CCC[C@@H](N)C(=O)O)[C@H]2SC1` [Cephalosporin C], the inhibition of moenomycinase result with Moenomycinase [1] is “inhibited”.

In the case of `CC(C)CCCC(C)CCC(C)CCC(C)(C)CCCCC(C)CCO[C@H](COP(=O)(O)O)C(=O)O` (stereo partly shown) [Decahydro MB], the “% Inhibition of In Vitro Peptidoglycan Synthesis” value (shortened to “% Inhibition”) at transglycosylase [2] was 28%.

In the case of `O=C(O)CN(CCN(CC(=O)O)CC(=O)O)CC(=O)O` [EDTA], the inhibition of moenomycinase entry with Moenomycinase [1] was “inhibited”.

Turning to `C=C(CC=C(C)CCC=C(C)C)CCC(C)(C)C=CCCC(C)=CCO[C@H](CO)C(=O)O` [MA], the “% Inhibition” value at transglycosylase [2] was found to be 67%. Also, the MIC against E. coli DC2, with Str. pyogenes 77 and against Staph. aureus 503 was above 100 µg/mL throughout.

As for `C=C(CC=C(C)CCC=C(C)C)CCC(C)(C)C=CCCC(C)=CCO[C@H](COP(=O)(O)O)C(=O)O` [MB], the “% Inhibition” value on transglycosylase [2] worked out at 94%. Further, on transglycosylase [3], the “inhibition of the transglycosylase reaction” value is 32.9%. Also, the results for the MIC with E. coli DC2, in the experiment on Str. pyogenes 77 and against Staph. aureus 503 were above 100 µg/mL, 3.12 µg/mL (≈ 5.93 µM) and 25 µg/mL (≈ 47.5 µM), respectively.

As for `C=C(CC=C(C)CCC=C(C)C)CCC(C)(C)C=CCCC(C)=CCOC(COP(=O)(O)OC1OC(C(N)=O)C(C)(O)C(OC(N)=O)C1OC1OC(COC2OC(CO)C(O)C(O)C2O)C(OC2OC(C)C(OC3OC(C(=O)NC4=C(O)CCC4=O)C(O)C(O)C3O)C(O)C2NC(C)=O)C(O)C1NC(C)=O)C(=O)O` (stereo not shown) [moenomycin A], the “inhibition of the biosynthesis of the peptidoglycan framework of the bacterial cell wall” value in experiment [4] was “inhibits”. In addition, the Km in the experiment with Moenomycinase [5] is 4 to 10 mM.

formalin: the inhibition of moenomycinase result in the experiment with Moenomycinase [1] was “inhibited”.
